Laboratory results as given in US7186703B2, “Derivatives of branched-chain lipophilic molecules and uses thereof” (D-Pharm Ltd., priority 2000, dated 2007).
Where “and” joins values, the source holds several entries; their conditions need not be identical. Equal entries are not always repeated. Where two headings read alike, the source gives them in different places.

Key:
Primary fibroblasts = assay: MTT cytotoxicity, normal primary fibroblasts; type: cell-based, human; details: three days, read-out: EC50 (50% reduction in cell viability)
Procedure: (§1) The cytotoxic activity of various phospho-derivatives of branched-chain fatty acids (DP-BFAs) was assayed in vitro in cell cultures that include normal and malignant cell types. The following cell systems were used: • Primary fibroblasts (human) • Normal bone marrow (BM) cells (mouse) • Primary bronchial epithelial cells (human, from Clonetics, cat. no. CC-2541) • Caco-2—colon cancer cell line (human, ATTC, HTB-37) • C6 glioma cell line (rat, ATCC, CRL-2199) • Neuro2a—neuroblastoma cell line (mouse, ATCC, CCL-131) • SKBR-3—breast cancer cell line (human, ATTC, HTB-30) • HL60—myeloid leukemia cell line (human, ATCC, CCL-240) • U937—myeloid leukemia cell line (human)
(§2) Cells were seeded in a microtiter plate in MEM containing 2 mM L-glutamine, 100 units/ml penicillin, 100 ug/ml streptomycin and 10% FCS at 37° C. The cultured cells were incubated, during their linear growth phase in the absence (control group) or presence of various DP-BFAs as indicated. The final concentrations of the tested DP-BFAs ranged from 1.5 to 200 microMolars. At the end of the incubation period, which was five days for the bone marrow cells and three days for all the other cell lines, the cytotoxic effect of the added P-BFA on the cells was estimated by using the colorimetric MTT assay. The MTT assay (Mosmann (1983) J. Immunol Methods 65: 55–63) measures mitochondrial reductase activity and serves for quantitative assessment of cellular viability. Drug concentration that causes 50% reduction in cell viability in comparison to the control group, is defined as EC50. The EC50 values of the tested DP-BFA compounds were calculated from dose response curves established for each of the different assayed cell lines.
(§3) Each EC50 value is an average of EC50 values derived from 1–5 independent experiments.

[1] = Octanol/saline solubility and partition coefficient, shake-flask technique; details: for logD / LogPc (octanol-saline partition coefficient): octanol/physiological saline; for LogPc (octanol-saline partition coefficient) / Water mg/ml (solubility in aqueous solution): sodium salts; for Water mg/ml (solubility in aqueous solution): physiological saline as aqueous solution; for Octanol mg/ml (solubility in octanol): sodium salts of the branched fatty acids and their PO4 derivatives
Procedure: The lipophilicity values of various derivatives of branched fatty acids were estimated by comparing the solubility of these compounds in organic versus aqueous solutions. Octanol and physiological saline were used, respectively, as the organic and aqueous solutions. The partition coefficient (Pc) value, i.e. the octanol/saline distribution was measured by the shake-flask technique.

[2] = system: Normal bone marrow (BM) cells; assay: MTT cytotoxicity, normal bone marrow cells; type: cell-based, mouse; details: five days, read-out: EC50 (50% reduction in cell viability)
Procedure: as §1, §2, §3

[3] = system: blood brain barrier (BBB); assay: BBB permeability to EB-albumin and Fluorescein in normal rat brains; type: in vivo; details: compounds at EC50 (Mannitol 25%); for % EB/g brain: control 0.04 ± 0.01; for Brain fluorescein uptake (% of serum F-Na level): control 0.3 ± 0.08; for Ratio F-Na/EB (mean of individual ratios): control 9.5 ± 1.6
In short: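 In normal rats, Evans blue–albumin (70 kD) and fluorescein sodium (376 D) were infused into the external carotid artery over 30 s, with test compounds at their EC50 concentrations or vehicle. EB reported as percent of total per gram brain; fluorescein as percent of serum level.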

[4] = system: SKBR-3 breast cancer cell line; assay: MTT cytotoxicity, SKBR-3; type: cell-based, human; details: three days, read-out: EC50 (50% reduction in cell viability)
Procedure: as §1, §2, §3

[5] = system: Primary bronchial epithelial cells; assay: MTT cytotoxicity, normal primary epithelial cells; type: cell-based, human; details: Normal primary epithel, three days, read-out: EC50 (50% reduction in cell viability)
Procedure: as §1, §2, §3

[6] = system: blood brain barrier (BBB); assay: BBB permeabilization in rats, Evans blue extravasation into brain; type: in vivo, Sprague-Dawley rats; details: for μg EB/g brain (at EC50): at EC50 (Mannitol at 25%); for MEC (minimal effective concentration): concentration giving 3 μg EB/g brain; for MEC: Table 8, sodium salt, in µM
[7] = octanol, organic solvent or mixture
[8] = physiological saline, saline or isotonic
[9] = Mus musculus, Bone marrow cell, 120 h
[10] = Homo sapiens, Primary bronchial epithelial cell, 72 h
[11] = Table 6, rat brains, Evans blue extravasation, read-out: EQ50 (the source's name)

Row | Compound | EC50 (Primary fibroblasts; Homo sapiens, Fibroblast, 72 h) [µM] | solubility [1, 7] [µg/mL] | logD [1] | solubility [1, 8] [µg/mL] | EC50 [2, 9] [µM] | % EB/g brain [3] [%] | Brain fluorescein uptake (% of serum F-Na level) [3] | Ratio F-Na/EB (mean of individual ratios) [3] | EC50 ([4]; Homo sapiens, SK-BR-3, 72 h) [µM] | EC50 [5, 10] [µM] | μg EB/g brain (at EC50) ([6]; Table 6) | MEC (minimal effective concentration) ([6]; Table 6) | EC50 [6, 11] [µM] | MEC [6] | LogPc (octanol-saline partition coefficient) [1] | Water mg/ml (solubility in aqueous solution) [1] [mg/mL] | Octanol mg/ml (solubility in octanol) [1] [mg/mL] | EC50 [4] [µM] | also measured
1 | CCCCCCCCCCCCC(CCC)C(=O)OCCOP(=O)([O-])OCC[N+](C)(C)C (stereo not shown) [3,12-MEG-PC, 2-(2′-Propyltetradecanoyloxy)ethylphosphocholine] | 160 | > 10000 | 1.22 | > 10000 | 95 | 0.9 ± 0.2 | 5.2 ± 0.8 % of the F—Na level in the ser | 6.9 ± 0.1 | 50 | 94 | 15 ± 2 μg EB/g brain | 10 ± 1 µM | 19.5 ± 1.5 | 10 ± 1 |  |  |  |  | 
2 | 2-(4′-Hexadecanoyloxy)ethoxyethyl phosphate [3,12-DEG-PO4] |  |  |  |  |  |  |  | around 9 |  |  |  |  |  | 3.0 ± 0.5 | 1.31 | 8 | >5 |  | 
3 | CCCCCCCCCCCCC(CCC)C(=O)OCCOCCOP(=O)([O-])[O-].[Na+].[Na+] (stereo not shown) [3,12-DEG-PO4Na2, 2-[2′-(2″-Propyltetradecanoyloxy)-ethoxy]ethyl Disodium Phosphate] |  |  |  |  |  | 1.4 ± 0.2 | 9.0 ± 1.4 % of the F—Na level in the ser | 9.0 ± 1.2 |  |  | 18 μg EB/g brain and 18 ± 3 μg EB/g brain | 3.3 µM and 3.3 ± 0.5 µM | 20 |  |  |  |  | 60 | EC50 (Primary fibroblasts): 65 µM; EC50 [2]: 62 µM; EC50 [5]: > 200 µM
4 | CCCCCCCCCCCCC(CCC)OP(=O)([O-])OCC[N+](C)(C)C (stereo not shown) [3,12-PC, 4-Hexadecanyl phosphocholine] |  |  |  |  |  | 0.8 ± 0.1 | 3.0 ± 0.5 % of the F—Na level in the ser | 7.8 ± 1.3 |  |  | 10 ± 1 μg EB/g brain | 23 ± 4 µM | 76 ± 14 | 23 ± 4 |  | >10 | >10 | 62 | 
5 | CCCCCCCCCCCCC(CCC)C(=O)OCCOCCOP(=O)([O-])OCC[N+](C)(C)C (stereo not shown) [3,12-DEG-PC, 2-(2′-Propyltetradecanoyloxy)ethoxyethylphosphocholine] | 170 | > 50000 | 0.73 | > 10000 | 166 | 0.6 ± 0.1 | 2.9 ± 0.5 % of the F—Na level in the ser | 6.8 ± 0.8 | 40 | 90 | 14 ± 2 μg EB/g brain | 15 ± 2 µM | 70 ± 12 | 15 ± 2 |  |  |  |  | 
6 | CCCCCCCCCCCCC(CCC)C(=O)[O-].[Na+] (stereo not shown) [3,12-Na, reference compound] |  |  |  |  |  | 1.8 ± 0.2 | 6.4 ± 1.1 % of the F—Na level in the ser | 4.9 and 4.9 ± 0.9 |  |  |  |  |  | 6.5 ± 0.7 | 0.99 | >10 | >20 | 130 | permeabilization of the BBB (FIG. 1, in words) ([6]; Evans blue extravasation in rat brain, 3,n-type BFAs): active; MEC (minimal effective concentration) ([6]; Table 5): 6.5 ± 0.7; EC50 ([6]; Table 5, rat brain, intracarotid infusion, read-out: EC50 (Evans Blue extravasation)): 20 ± 3 µM
